The results in this text go back to the PolyMetriX glass transition set.

As for `*/C=C(\C#N)C(=O)NC1CCCCC1NC(=O)/C(C#N)=C/c1ccc(/C=C/c2ccc(N(CC)Cc3cccc(CN(CC)c4ccc(/C=C/c5ccc(*)s5)cc4)c3)cc2)s1` (repeat unit), the glass transition temperature was determined as 157.00 °C. The same measure for `*CCCCCCNC(=O)Cc1ccc(CC(=O)N*)cc1` (repeat unit): 95.00 °C.

With `*CCCCCCOC(=O)C(CCCCP(=O)(OCC)OCC)C(=O)OCCCCCCOc1ccc(-n2on2-c2ccc(O*)cc2)cc1` (repeat unit), the glass transition temperature was 4.00 °C. The same measure for `*CCCCCCOC(=O)c1cc(OCCCCCCOc2ccc(/N=N/c3ccc(C#N)cc3)cc2)cc(C(=O)OCCCCCCN2C(=O)c3ccc(-c4ccc5c(c4)C(=O)N(*)C5=O)cc3C2=O)c1` (repeat unit): 93.00 °C; for `*CCCCCCOC(=O)c1cc(OCCCCCCOc2ccc(/N=N/c3ccc(C#N)cc3)cc2)cc(C(=O)OCCCCCCN2C(=O)c3ccc(Oc4ccc5c(c4)C(=O)N(*)C5=O)cc3C2=O)c1` (repeat unit): 61.00 °C. `*CCCCCNC(=O)Cc1ccc(C(=O)N*)cc1` (repeat unit) came in with a glass transition temperature of 103.00 °C. For the molecule `*CCCCNC(=O)Cc1ccc(C(=O)N*)cc1` (repeat unit), the glass transition temperature turned out to be 84.00 °C. The same measure for `*CCN(CCOC(=O)c1cc(OCCN(C)c2ccc(S(=O)(=O)C(F)(F)C(F)(F)C(F)(F)C(F)(F)C(F)(F)C(F)(F)C(F)(F)C(F)(F)F)cc2)cc(C(=O)O*)c1)c1ccc(S(=O)(=O)C(F)(F)C(F)(F)C(F)(F)C(F)(F)C(F)(F)C(F)(F)C(F)(F)C(F)(F)F)cc1` (repeat unit): 83.00 °C; for `*CCN(CCOC(=O)c1cc(OCc2c(F)c(F)c(OC)c(F)c2F)cc(C(=O)O*)c1)c1ccc(/C=C/c2ccc(/C=C/C3=C(C#N)C(=C(C#N)C#N)OC3(c3ccccc3)C(F)(F)F)s2)cc1` (repeat unit): 140.00 °C; for `*CCN(CCOC(=O)c1ccc(C(=O)O*)c(OCCC)c1)c1ccc(-c2nc3ccc([N+](=O)[O-])cc3o2)cc1` (repeat unit): 119.00 °C. The same measure for `*Cc1cc(C23CC4CC(CC(C4)C2)C3)cc(CN(*)C)c1O` (repeat unit): 188.80 °C. The same measure for `*Cc1cc2cc(C(=O)Nc3ccc(-c4ccc(NC(=O)c5cc6cc(*)c(OC(=O)COc7ccc8ccc(=O)oc8c7)cc6oc5=O)cc4)cc3)c(=O)oc2cc1OC(=O)COc1ccc2ccc(=O)oc2c1` (repeat unit): 248.00 °C. As to `*Cc1cc2cc(C(=O)Nc3ccc(Cc4ccc(NC(=O)c5cc6cc(*)c(OC(=O)COc7ccc8ccc(=O)oc8c7)cc6oc5=O)cc4)cc3)c(=O)oc2cc1OC(=O)COc1ccc2ccc(=O)oc2c1` (repeat unit), the glass transition temperature was 221.00 °C. Turning to `*Cc1cc2cc(C(=O)Nc3cccc(NC(=O)c4cc5cc(*)c(OC(=O)COc6ccc7ccc(=O)oc7c6)cc5oc4=O)c3)c(=O)oc2cc1OC(=O)COc1ccc2ccc(=O)oc2c1` (repeat unit), the glass transition temperature amounted to 240.00 °C. In the case of `*Oc1c(F)c(F)c(-c2c(F)c(F)c(Oc3ccc(Cc4ccc(*)c(C=O)c4)cc3C=O)c(F)c2F)c(F)c1F` (repeat unit) it was 198.00 °C; in that of `*Oc1ccc(CC(C#N)(Cc2ccc(*)cc2)c2ccccc2)cc1` (repeat unit), 143.00 °C; in that of `*Oc1ccc(CC(Cc2ccc(*)cc2)(C(=O)OCC)C(=O)OCC)cc1` (repeat unit), 54.00 °C. Take `*Oc1ccc(CC(NC(=O)CCc2ccc(OC(=O)CCC(*)=O)cc2)C(=O)OC)cc1` (repeat unit): the glass transition temperature turned out to be 91.50 °C. Take `*Oc1ccc(CC(NC(=O)CCc2ccc(OC(=O)CCC(*)=O)cc2)C(=O)OCC(C)C)cc1` (repeat unit): the glass transition temperature is 75.00 °C. Molecule `*Oc1ccc(CC(NC(=O)CCc2ccc(OC(=O)CCC(*)=O)cc2)C(=O)OCCCC)cc1` (repeat unit) gave a glass transition temperature of 67.00 °C. In the case of `*Oc1ccc(CC(NC(=O)CCc2ccc(OC(=O)CCC(*)=O)cc2)C(=O)OCCCCCC)cc1` (repeat unit) it was 53.00 °C; in that of `*Oc1ccc(CC(NC(=O)CCc2ccc(OC(=O)CCC(*)=O)cc2)C(=O)OCCOCCOCC)cc1` (repeat unit), 34.00 °C; in that of `*Oc1ccc(CC(NC(=O)CCc2ccc(OC(=O)CCCC(*)=O)cc2)C(=O)OC(C)CC)cc1` (repeat unit), 52.00 °C.

For the molecule `*Oc1ccc(CC(NC(=O)CCc2ccc(OC(=O)CCCC(*)=O)cc2)C(=O)OCC)cc1` (repeat unit), the glass transition temperature was 70.00 °C. Consider `*Oc1ccc(CC(NC(=O)CCc2ccc(OC(=O)CCCC(*)=O)cc2)C(=O)OCCCCCC)cc1` (repeat unit), for which the glass transition temperature amounted to 43.00 °C. The same measure for `*Oc1ccc(CC(NC(=O)CCc2ccc(OC(=O)CCCCC(*)=O)cc2)C(=O)OC(C)CC)cc1` (repeat unit): 50.00 °C. The same measure for `*Oc1ccc(CC(NC(=O)CCc2ccc(OC(=O)CCCCC(*)=O)cc2)C(=O)OCC(C)C)cc1` (repeat unit): 56.00 °C; for `*Oc1ccc(CC(NC(=O)CCc2ccc(OC(=O)CCCCC(*)=O)cc2)C(=O)OCC)cc1` (repeat unit): 61.00 °C. In the case of `*Oc1ccc(CC(NC(=O)CCc2ccc(OC(=O)CCCCCCC(*)=O)cc2)C(=O)OCC(C)C)cc1` (repeat unit) it was 42.00 °C; in that of `*Oc1ccc(CC(NC(=O)CCc2ccc(OC(=O)CCCCCCCCC(*)=O)cc2)C(=O)OCC(C)C)cc1` (repeat unit), 33.00 °C. On to `*Oc1ccc(CC(NC(=O)CCc2ccc(OC(=O)CCCCCCCCC(*)=O)cc2)C(=O)OCCCCCCCC)cc1` (repeat unit), for which the glass transition temperature turned out to be 15.50 °C. Consider `*Oc1ccc(CC(NC(=O)CCc2ccc(OC(=O)COCC(*)=O)cc2)C(=O)OC(C)C)cc1` (repeat unit), for which the glass transition temperature came out at 80.00 °C. In the case of `*Oc1ccc(CC(NC(=O)CCc2ccc(OC(=O)COCC(*)=O)cc2)C(=O)OC(C)CC)cc1` (repeat unit) it was 68.00 °C; in that of `*Oc1ccc(CC(NC(=O)CCc2ccc(OC(=O)COCC(*)=O)cc2)C(=O)OCC)cc1` (repeat unit), 79.00 °C. In the case of `*Oc1ccc(CC(NC(=O)CCc2ccc(OC(=O)COCC(*)=O)cc2)C(=O)OCCCCCCCCCCCC)cc1` (repeat unit) it was 36.00 °C. In the case of `*Oc1ccc(CC(NC(=O)CCc2ccc(OC(=O)COCCOCC(*)=O)cc2)C(=O)OC(C)C)cc1` (repeat unit) it was 58.00 °C.

Take `*Oc1ccc(CC(NC(=O)CCc2ccc(OC(=O)COCCOCC(*)=O)cc2)C(=O)OCCCC)cc1` (repeat unit): the glass transition temperature is 45.00 °C. In the case of `*Oc1ccc(CC(NC(=O)Cc2ccc(OC(=O)CC(C)CCC(*)=O)cc2)C(=O)OCCCCCCCC)cc1` (repeat unit) it was 30.00 °C; in that of `*Oc1ccc(CC(NC(=O)Cc2ccc(OC(=O)CCC(*)=O)cc2)C(=O)OCCCCCCCC)cc1` (repeat unit), 51.00 °C.

`*Oc1ccc(CC(NC(=O)Cc2ccc(OC(=O)CCCC(*)=O)cc2)C(=O)OCCCCCCCC)cc1` (repeat unit) yielded a glass transition temperature of 38.00 °C. In the case of `*Oc1ccc(CC(NC(=O)Cc2ccc(OC(=O)CCCCCCC(*)=O)cc2)C(=O)OCC)cc1` (repeat unit) it was 54.00 °C; in that of `*Oc1ccc(CC(NC(=O)Cc2ccc(OC(=O)CCCCCCC(*)=O)cc2)C(=O)OCCCCCCCC)cc1` (repeat unit), 22.00 °C; in that of `*Oc1ccc(CC(NC(=O)Cc2ccc(OC(=O)COCCOCC(*)=O)cc2)C(=O)OCC)cc1` (repeat unit), 50.00 °C. The same measure for `*Oc1ccc(CC(NC(=O)Cc2ccc(OC(=O)COCCOCC(*)=O)cc2)C(=O)OCCCCCC)cc1` (repeat unit): 31.00 °C; for `*Oc1ccc(CC(NC(=O)Cc2ccc(OC(=O)COCCOCC(*)=O)cc2)C(=O)OCCCCCCCC)cc1` (repeat unit): 23.00 °C; for `*Oc1ccc(Cc2ccc(OC(*)=O)c(C)c2)cc1C` (repeat unit): 51.00 °C. In the case of `*c1c(C)cc(-c2cc(C)c(N3C(=O)c4cccc(Oc5c(C)cc(Cc6cc(C)c(Oc7cccc8c7C(=O)N(*)C8=O)c(C)c6)cc5C)c4C3=O)c(C)c2)cc1C` (repeat unit) it was 276.00 °C; in that of `*c1c(C)cc(Cc2cc(C)c(N3C(=O)c4cccc(Oc5c(C)cc(Cc6cc(C)c(Oc7cccc8c7C(=O)N(*)C8=O)c(C)c6)cc5C)c4C3=O)c(C)c2)cc1C` (repeat unit), 243.00 °C; in that of `*c1ccc(CC(=O)Nc2ccc(Oc3ccc(NC(=O)Cc4ccc(-c5sc(*)c(-c6ccccc6)c5-c5ccccc5)cc4)cc3)cc2)cc1` (repeat unit), 226.00 °C. The molecule `*c1ccc(CC(=O)Nc2cccc3c(NC(=O)Cc4ccc(-c5sc(*)c(-c6ccccc6)c5-c5ccccc5)cc4)cccc23)cc1` (repeat unit) had a glass transition temperature of 255.00 °C. In the case of `*c1ccc(Cc2ccc(N3C(=O)c4ccc(-c5ccc6c(c5)C(=O)N(*)C6=O)cc4C3=O)c(C(C)(C)C)c2)cc1C(C)(C)C` (repeat unit) it was 324.00 °C; in that of `*c1ccc(Cc2ccc(N3C(=O)c4cccc5c(N6CCC(CCCC7CCN(c8ccc9c%10c(cccc8%10)C(=O)N(*)C9=O)CC7)CC6)ccc(c45)C3=O)c(C(C)(C)C)c2)cc1C(C)(C)C` (repeat unit), 202.70 °C; in that of `*c1ccc(NC(=O)Cc2ccc(-c3sc(-c4ccc(CC(=O)Nc5ccc(-c6sc(*)c(-c7ccccc7)c6-c6ccccc6)cc5)cc4)c(-c4ccccc4)c3-c3ccccc3)cc2)cc1` (repeat unit), 273.00 °C.

`*c1ccc(Oc2ccc(-c3ccc(Oc4ccc(N5C(=O)c6cccc(Oc7c(C)cc(Cc8cc(C)c(Oc9cccc%10c9C(=O)N(*)C%10=O)c(C)c8)cc7C)c6C5=O)cc4)cc3)cc2)cc1` (repeat unit): the glass transition temperature was determined as 259.00 °C.
